Assay results reported in EP0354047A2, “Herbicidal method using atrazine” (MAY & BAKER LIMITED, priority 1988, dated 1990).

Experiments:
Eleusine indica [1] = assay: Experiment 2: glasshouse experiment, seedlings at 4-leaf stage, percentage phytotoxicity after 19 days; format: in vivo
Description: Agricultural surfactant - nonylphenol ethylene oxide condensate containing 9 moles ethylene oxide (in a commercial composition) was added to all spray dilutions to give 0.2% v/v concentration. […] The ED50 values were as follows:- The results were then used to plot an isobole with a "two-sided effect" according to the methods of […] op. cit. The isobole produced, shown hereinafter in Figure 1 was clearly a type III curve ([…]., page 75), characteristic of synergism.

maize var.Irla = assay: Experiment 5: glasshouse, crop plants at 3 leaf stage, percentage phytotoxicity after 12 days; details: for % crop phytotoxicity Maize (3 leaves): Compound 74 0 g/ha
Description: An experiment was carried out to determine the biological interaction between atrazine and Compound 74 on maize. A wide range of dose rates of atrazine i.e. 250, 500, 1000 and 2000 g/ha (in a commercial suspension concentrate formulation containing 500g/l w/v atrazine) and of Compound 74 i.e. 31, 63, 125, 250, 1000 and 2000 g/ha (in a composition according to Example 2 as described hereinafter) were applied in a spray volume of 290litres/ha to four replicate 10cm square plastic plant pots of loam soil containing one maize plant, at the 3 leaf growth stage. Agricultural surfactant ('Agral') was added to the spray dilutions to give 0.2%v/v concentration.
After spraying the pots were arranged in randomised blocks in a glasshouse and watered as necessary. After 12 days the plants were assessed for percentage phytotoxicity (reduction in green area compared with unsprayed plants) (0 = no effect 100 = complete destruction).
E = X + Y […] where E, X and Y are percentage phytotoxicity.
The ED values were then used to plot an isobole according to the method of P.M.L. Tammes op cit. The results of percentage phytotoxicity, the ED₂₀ values calculated from them and the calculated expected value are given in Table 9.

Amaranthus retroflexus = assay: Experiment 3: glasshouse, post-emergence, fresh weight after 19 days, % inhibition of growth; format: in vivo; details: for inhibition at 8 g/ha / inhibition at 16 g/ha / inhibition at 31 g/ha / inhibition at 63 g/ha / inhibition at 125 g/ha: Amaranthus retroflexus, post-emergence; for inhibition at 8 g/ha: Atrazine 8 g/ha alone; for inhibition at 16 g/ha: Atrazine 16 g/ha alone; for inhibition at 31 g/ha: Atrazine 31 g/ha alone; for inhibition at 63 g/ha: Atrazine 63 g/ha alone; for inhibition at 125 g/ha: Atrazine 125 g/ha alone; for ED₉₀: Atrazine alone
Description: (§1) A series of experiments was carried out to determine the nature of the biological interaction between atrazine and five compounds of general formula I on a range of weed species. […] The growth stages of the plants at spraying are also presented with the results. Agricultural surfactant (nonyl phenol ethylene oxide condensate containing 9 moles ethylene oxide marketed as 'Agral') was added to all spray dilutions to give 0.2% v/v concentration. […] After 19 days the fresh weight of vegetation in each pot was determined. […] E = […]00003:character} where E, X and Y are percentage inhibition of growth. In addition, the ED50 or ED90 values (the application rates giving 50% or 90% inhibition of growth, respectively) were calculated from the results for the piperidinedione alone and with increasing rates of atrazine.

Sesbania exactata = assay: as above; format: in vivo; details: 2 leaves
Description: as §1

Xanthium strumarium = assay: as above; format: in vivo; details: 2 leaves
Description: as §1

Bidens pilosa = assay: as above; format: in vivo; details: 2 leaves
Description: as §1

Digitaria sanguinalis = assay: as above; format: in vivo; details: 3 leaves
Description: as §1

Brassica kaber = assay: as above; format: in vivo; details: for ED₅₀ / ED₉₀: Atrazine alone; for inhibition at 8 g/ha / inhibition at 16 g/ha / inhibition at 31 g/ha / inhibition at 63 g/ha / inhibition at 125 g/ha: Mutarda arvensis, post-emergence; for inhibition at 8 g/ha: Atrazine 8 g/ha alone; for inhibition at 16 g/ha: Atrazine 16 g/ha alone; for inhibition at 31 g/ha: Atrazine 31 g/ha alone; for inhibition at 63 g/ha: Atrazine 63 g/ha alone; for inhibition at 125 g/ha: Atrazine 125 g/ha alone
Description: as §1

Eleusine indica [2] = assay: as above; format: in vivo; details: 3 leaves
Description: as §1

Solanum nigrum = assay: as above; format: in vivo; details: for ED₉₀: Atrazine alone; for inhibition at 8 g/ha / inhibition at 16 g/ha / inhibition at 31 g/ha / inhibition at 63 g/ha / inhibition at 125 g/ha: Solanum nigrum, post-emergence; for inhibition at 8 g/ha: Atrazine 8 g/ha alone; for inhibition at 16 g/ha: Atrazine 16 g/ha alone; for inhibition at 31 g/ha: Atrazine 31 g/ha alone; for inhibition at 63 g/ha: Atrazine 63 g/ha alone; for inhibition at 125 g/ha: Atrazine 125 g/ha alone
Description: as §1

CCNc1nc(Cl)nc(NC(C)C)n1 [Atrazine, 2-chloro-4-ethylamino-6-isopropylamino-1,3,5-triazine]
percentage phytotoxicity (Eleusine indica [1]; Atrazine 125 g/ha alone): 2%
percentage phytotoxicity (Eleusine indica [1]; Atrazine 250 g/ha alone): 13%
percentage phytotoxicity (Eleusine indica [1]; Atrazine 500 g/ha alone): 17%
percentage phytotoxicity (Eleusine indica [1]; Atrazine 1000 g/ha alone): 43%
ED₅₀ (Eleusine indica [1]; Atrazine alone, 50% phytotoxicity): 1193 g/ha
ED₂₀ (maize var.Irla; Atrazine alone): ED₂₀(g/ha) ∞
crop phytotoxicity (maize var.Irla; Atrazine alone): no crop phytotoxicity
% crop phytotoxicity Maize (3 leaves) (maize var.Irla; Atrazine 250 g/ha): 0%
% crop phytotoxicity Maize (3 leaves) (maize var.Irla; Atrazine 500 g/ha): 0%
% crop phytotoxicity Maize (3 leaves) (maize var.Irla; Atrazine 1000 g/ha): 0%
% crop phytotoxicity Maize (3 leaves) (maize var.Irla; Atrazine 2000 g/ha): 0%
inhibition at 8 g/ha (Amaranthus retroflexus; 2-4 leaves, Table 4): 8%
inhibition at 8 g/ha (Amaranthus retroflexus; 2 leaves, Table 1): 36%
inhibition at 8 g/ha (Amaranthus retroflexus; 2 leaves, Table 5): 0%
inhibition at 16 g/ha (Amaranthus retroflexus; 2-4 leaves, Table 4): 26%
inhibition at 16 g/ha (Amaranthus retroflexus; 2 leaves, Table 1): 58%
inhibition at 16 g/ha (Amaranthus retroflexus; 2 leaves, Table 5): 58%
inhibition at 31 g/ha (Amaranthus retroflexus; 2-4 leaves, Table 4): 39%
inhibition at 31 g/ha (Amaranthus retroflexus; 2 leaves, Table 1): 81%
inhibition at 31 g/ha (Amaranthus retroflexus; 2 leaves, Table 5): 85%
inhibition at 63 g/ha (Amaranthus retroflexus; 2-4 leaves, Table 4): 56%
inhibition at 63 g/ha (Amaranthus retroflexus; 2 leaves, Table 1): 88%
inhibition at 63 g/ha (Amaranthus retroflexus; 2 leaves, Table 5): 71%
inhibition at 125 g/ha (Amaranthus retroflexus; 2-4 leaves, Table 4): 96%
inhibition at 125 g/ha (Amaranthus retroflexus; 2 leaves, Table 1): 95%
inhibition at 125 g/ha (Amaranthus retroflexus; 2 leaves, Table 5): 99%
ED₉₀ (Amaranthus retroflexus; 2-4 leaves, Table 4): ED₉₀(g/ha) 105.79
ED₉₀ (Amaranthus retroflexus; 2 leaves, Table 1): ED₉₀(g/ha) 68.57
ED₉₀ (Amaranthus retroflexus; 2 leaves, Table 5): ED₉₀(g/ha) 53
ED₉₀ (Sesbania exactata; Atrazine alone): ED₉₀(g/ha)76.91
inhibition at 8 g/ha (Sesbania exactata; Sesbania, post-emergence, Atrazine 8 g/ha alone): 21%
inhibition at 16 g/ha (Sesbania exactata; Sesbania, post-emergence, Atrazine 16 g/ha alone): 34%
inhibition at 31 g/ha (Sesbania exactata; Sesbania, post-emergence, Atrazine 31 g/ha alone): 68%
inhibition at 63 g/ha (Sesbania exactata; Sesbania, post-emergence, Atrazine 63 g/ha alone): 86%
inhibition at 125 g/ha (Sesbania exactata; Sesbania, post-emergence, Atrazine 125 g/ha alone): 96%
ED₉₀ (Xanthium strumarium; Atrazine alone): ED₉₀(g/ha) 138.01
inhibition at 8 g/ha (Xanthium strumarium; Xanthium strumarium, post-emergence, Atrazine 8 g/ha alone): 25%
inhibition at 16 g/ha (Xanthium strumarium; Xanthium strumarium, post-emergence, Atrazine 16 g/ha alone): 21%
inhibition at 31 g/ha (Xanthium strumarium; Xanthium strumarium, post-emergence, Atrazine 31 g/ha alone): 72%
inhibition at 63 g/ha (Xanthium strumarium; Xanthium strumarium, post-emergence, Atrazine 63 g/ha alone): 59%
inhibition at 125 g/ha (Xanthium strumarium; Xanthium strumarium, post-emergence, Atrazine 125 g/ha alone): 84%
ED₅₀ (Bidens pilosa; Atrazine alone): ED₅₀(g/ha)63.17
inhibition at 8 g/ha (Bidens pilosa; Bidens pilosa, post-emergence, Atrazine 8 g/ha alone): 0%
inhibition at 16 g/ha (Bidens pilosa; Bidens pilosa, post-emergence, Atrazine 16 g/ha alone): 0%
inhibition at 31 g/ha (Bidens pilosa; Bidens pilosa, post-emergence, Atrazine 31 g/ha alone): 5%
inhibition at 63 g/ha (Bidens pilosa; Bidens pilosa, post-emergence, Atrazine 63 g/ha alone): 46%
inhibition at 125 g/ha (Bidens pilosa; Bidens pilosa, post-emergence, Atrazine 125 g/ha alone): 92%
ED₉₀ (Digitaria sanguinalis; Atrazine alone): ED₉₀ (g/ha) ∞
inhibition at 125 g/ha (Digitaria sanguinalis; Digitaria sanguinalis, post-emergence, Atrazine 125 g/ha alone): 25%
inhibition at 500 g/ha (Digitaria sanguinalis; Digitaria sanguinalis, post-emergence, Atrazine 500 g/ha alone): 24%
inhibition at 1000 g/ha (Digitaria sanguinalis; Digitaria sanguinalis, post-emergence, Atrazine 1000 g/ha alone): 32%
ED₅₀ (Brassica kaber; 2-3 leaves, Table 4): ED₅₀(g/ha) 88.39
ED₉₀ (Brassica kaber; 2 leaves, Table 5): ED₉₀(g/ha) 77
ED₉₀ (Brassica kaber; 2 leaves, Table 6): ED₉₀(g/ha) 62.14
ED₅₀ (Brassica kaber; 2 leaves, Table 7): ED₅₀(g/ha) 78.24
inhibition at 8 g/ha (Brassica kaber; 2-3 leaves, Table 4): 16%
inhibition at 8 g/ha (Brassica kaber; 2 leaves, Table 5): 0%
inhibition at 8 g/ha (Brassica kaber; 2 leaves, Table 6): 0%
inhibition at 8 g/ha (Brassica kaber; 2 leaves, Table 7): 0%
inhibition at 16 g/ha (Brassica kaber; 2-3 leaves, Table 4): 5%
inhibition at 16 g/ha (Brassica kaber; 2 leaves, Table 5): 21%
inhibition at 16 g/ha (Brassica kaber; 2 leaves, Table 6): 35%
inhibition at 16 g/ha (Brassica kaber; 2 leaves, Table 7): 0%
inhibition at 31 g/ha (Brassica kaber; 2-3 leaves, Table 4): 19%
inhibition at 31 g/ha (Brassica kaber; 2 leaves, Table 5): 42%
inhibition at 31 g/ha (Brassica kaber; 2 leaves, Table 6): 41%
inhibition at 31 g/ha (Brassica kaber; 2 leaves, Table 7): 17%
inhibition at 63 g/ha (Brassica kaber; 2-3 leaves, Table 4): 30%
inhibition at 63 g/ha (Brassica kaber; 2 leaves, Table 5): 60%
inhibition at 63 g/ha (Brassica kaber; 2 leaves, Table 6): 91%
inhibition at 63 g/ha (Brassica kaber; 2 leaves, Table 7): 27%
inhibition at 125 g/ha (Brassica kaber; 2-3 leaves, Table 4): 57%
inhibition at 125 g/ha (Brassica kaber; 2 leaves, Table 5): 100%
inhibition at 125 g/ha (Brassica kaber; 2 leaves, Table 6): 100%
inhibition at 125 g/ha (Brassica kaber; 2 leaves, Table 7): 75%
ED₅₀ (Eleusine indica [2]; Atrazine alone): ED₅₀ (g/ha)664.61
inhibition at 125 g/ha (Eleusine indica [2]; Eleusine indica, post-emergence, Atrazine 125 g/ha alone): 4%
inhibition at 500 g/ha (Eleusine indica [2]; Eleusine indica, post-emergence, Atrazine 500 g/ha alone): 36%
inhibition at 1000 g/ha (Eleusine indica [2]; Eleusine indica, post-emergence, Atrazine 1000 g/ha alone): 66%
ED₉₀ (Solanum nigrum; 1-2 leaves, Table 4): ED₉₀(g/ha) 121.27
ED₉₀ (Solanum nigrum; 1 leaf, Table 6): ED₉₀(g/ha) 59.35
ED₉₀ (Solanum nigrum; 2 leaves, Table 7): ED₉₀(g/ha) 72.94
inhibition at 8 g/ha (Solanum nigrum; 1-2 leaves, Table 4): 9%
inhibition at 8 g/ha (Solanum nigrum; 1 leaf, Table 6): 19%
inhibition at 8 g/ha (Solanum nigrum; 2 leaves, Table 7): 6%
inhibition at 16 g/ha (Solanum nigrum; 1-2 leaves, Table 4): 47%
inhibition at 16 g/ha (Solanum nigrum; 1 leaf, Table 6): 45%
inhibition at 16 g/ha (Solanum nigrum; 2 leaves, Table 7): 27%
inhibition at 31 g/ha (Solanum nigrum; 1-2 leaves, Table 4): 47%
inhibition at 31 g/ha (Solanum nigrum; 1 leaf, Table 6): 73%
inhibition at 31 g/ha (Solanum nigrum; 2 leaves, Table 7): 35%
inhibition at 63 g/ha (Solanum nigrum; 1-2 leaves, Table 4): 67%
inhibition at 63 g/ha (Solanum nigrum; 1 leaf, Table 6): 94%
inhibition at 63 g/ha (Solanum nigrum; 2 leaves, Table 7): 76%
inhibition at 125 g/ha (Solanum nigrum; 1-2 leaves, Table 4): 90%
inhibition at 125 g/ha (Solanum nigrum; 1 leaf, Table 6): 97%
inhibition at 125 g/ha (Solanum nigrum; 2 leaves, Table 7): 99%
